Measurements: patent publication US20090136624A1, “LACTIC ACID BACTERIA PRODUCING NISIN AT HIGH CONCENTRATION AND METHOD FOR SELECTING THE SAME” (Ajinomoto Co., Inc., priority 2004, published 2009)

Legend:
[1] = tested on: Nisin Z-producing strain (parent strain); assay: Growth of parent strain on Nisin-containing M17 medium (MIC); assay type: cell-based, Lactococcus lactis; conditions: 30° C., 2 days
Procedure: A Nisin Z-producing strain (parent strain shown in Table 3) separated from its native environment was plated on M17 medium (manufactured by Difco) prepared such that a Nisin concentration became 1,000, 2,000, 5,000 or 10,000 IU/mL, and was cultured at 30° C. for 2 days. This strain grew in M17 medium having a Nisin concentration of 1,000 or 2,000 IU/mL, but not in M17 medium having a Nisin concentration of 5,000 or 10,000 IU/mL. From the results, it was confirmed that the minimum growth inhibitory concentration (MIC) of this strain to Nisin was 5,000 IU/mL.

[2] = tested on: Nisin Z-producing lactic acid bacteria (mutated strain); assay: Growth of NTG-mutated Nisin Z-producing lactic acid bacteria in Nisin-containing M17 medium; assay type: cell-based, Lactococcus lactis
Procedure: The Nisin Z-producing lactic acid bacteria separated from its native environment were precultured in M17 medium, and the lactic acid bacteria were treated with 500 μg/mL of NTG to induce mutation.

For Nisin, the “minimum growth inhibitory concentration (MIC) of this strain to Nisin” value [1] was 5,000 IU/mL, the Growth number ([2]; Nisin conc. 1,000 IU/ml) was 1.20E+09 cell/ml and the Growth number ([2]; Nisin conc. 2,000 IU/ml) was 1.20E+09 cell/ml. It also gave a Growth number ([2]; Nisin conc. 4,000 IU/ml) of 1.20E+09 cell/ml, a Growth number ([2]; Nisin conc. 8,000 IU/ml) of 7.00E+08 cell/ml and a Growth number ([2]; Nisin conc. 10,000 IU/ml) of 1.14E+08 cell/ml. For the same substance, the Growth number ([2]; Nisin conc. 20,000 IU/ml) was 3.21E+07 cell/ml, the Growth number ([2]; Nisin conc. 40,000 IU/ml) was 9.35E+05 cell/ml and the Growth number ([2]; Nisin conc. 80,000 IU/ml) was 1.16E+03 cell/ml. For the same substance, the Growth number ([2]; Nisin conc. 100,000 IU/ml) was 4.76E+02 cell/ml.
